Series [1] deals with maximal electroshock (MES)-induced seizures. Nature of the series: Maximal electroshock seizure (MES) test, mice (ip). Particulars: for ED50: Mus musculus. It is filed as in vivo. On the technique in general: The maximal electroshock test induces tonic seizures with an electrical stimulus.
Description: (§2) The maximal electroconvulsive shock (MES) test is regarded as a standard screen for anticonvulsant activity in terms of inhibition of seizure spread in generalized tonic-clonic seizures.
(§3) Groups of at least 8 male albino CF No. 1 mice or male albino Sprague-Dawley rats are treated with 10 mL/kg i.p. or 4 mL/kg p.o. of the test compound solution, respectively. The electrical stimulus in the MES test is 50 mA at 60 Hz for mice and 150 mA at 60 Hz for rats, both delivered for 0.2 sec. Abolition of the hind leg tonic extensor component of the seizure is used as the endpoint.
A further series relates to behavioral toxicity. Nature of the series: Toxicity (behavioral toxicity), rat (po). The class given is in vivo. Here is the method:
(§1) Tests are conducted in groups of at least 8 mice or rats to determine the intrinsic neurotoxicity (neuromuscular impairment) after administration of the test compound by the route of administration to be used in the pharmacology studies. Neurotoxicity is determined in male CF No 1 mice by the rotarod procedure. Inability of the mouse to maintain its equilibrium in 3 trials during 1 min on this rotating rod (6 rpm) is used as an indication of such impairment. In Sprague-Dawley rats, minimal motor impairment (MMI) is determined by overt evidence of ataxia, abnormal gait, and stance.

Series [2] has as its system maximal electroshock (MES)-induced seizures. Nature of the series: Maximal electroshock seizure (MES) test, rat (po). It is filed as in vivo. The note with it: for ED50: Rattus norvegicus.
Description: as §2, §3
The test system of series [3] is neurologic toxicity (rotorod test). Nature of the series: Neurologic toxicity, rotorod test, mice (ip). The class given is in vivo. The procedure: as §1
Another series concerns 6 Hz seizures. Description: 6 Hz seizure model, mice (ip). It is filed as in vivo. Particulars: for 6 Hz, ED50: mice, ip; for seizure activity in the 6 Hz seizure model assay: comparable to or exceeding phenyloin and phenobarbital.
Where [4] appears, read: mice, ip, 95% confidence intervals in parentheses, Table 1.
Where [5] appears, read: mice, ip, time (h) in brackets, Table 3, NINDS ASP.
[6] abbreviates: read-out: MES, ED50, rat, po, Table 3.
[7] abbreviates: behavioral toxicity, Table b607.
The mark [8] stands for this setting: behavioral toxicity, Table b608.
The mark [9] stands for this setting: mice, ip, time (h) in brackets, (X′—Y′—Z′ group).
The mark [10] stands for this setting: mice, ip, time (h) in brackets, (terminal ring group).
Where [11] appears, read: rotorod test, time of peak effect (h) in brackets, Table 2.

The term melting point denotes the temperature of the solid-liquid transition. On to `C#CCOC[C@@H](NC(C)=O)C(=O)NCc1ccc(N=C=S)cc1`, for which the melting point lay in the range of 157 to 159 °C.

Regarding `CC(=O)NC(C)C(=O)NCc1ccccc1` (racemic) [(R,S)-4, reference compound], the “MES, ED50” value in series [1] (setting [4]) is on record as 77 (67-89) mg/kg.

Turning to `CC(=O)NC(C(=O)NCc1ccccc1)c1ccco1` (racemic) [(R,S)-5, reference compound], in series [1] (setting [4]), the “MES, ED50” value is on record as 10 (9.1-12) mg/kg.

For the molecule `CC(=O)NC(C(=O)NCc1ccccc1)c1ccccc1` (racemic) [(R,S)-6, reference compound], the “MES, ED50” value in series [1] (setting [4]) is recorded as 32 mg/kg.

By ED50 is commonly meant the midpoint of the dose-response relation. `CC(=O)NC(C(=O)NCc1ccc(OCc2cccc(F)c2)cc1)c1ccccn1` (racemic) [(R,S)-9, N-4-(3-Fluorobenzyloxy)benzyl 2-Acetamido-2-(pyridin-2-yl)acetamide]: the “Tox, TD50” value in the series on behavioral toxicity (behavioral toxicity, Table 3) was >30 [4] milligrams per kilogram. Also, the “MES, ED50” value in series [1] (setting [5]) is 28 [0.5] (20-36) milligrams per kilogram. For the same molecule, in series [2] (setting [6]), the ED50 was more than 30 mg/kg.

With `CCOCC(NC(C)=O)C(=O)NCc1ccccc1` (racemic) [(R,S)-10, reference compound], in series [1] (mice, ip), the “MES, ED50” value came to 17 mg/kg.

Consider `C=CCOCC(NC(C)=O)C(=O)NCc1ccccc1` (racemic) [(R,S)-11, reference compound], for which the “MES, ED50” value in series [1] (mice, ip) is >30, <100 mg/kg.

Consider `COC[C@@H](NC(C)=O)C(=O)NCc1ccc(N=[N+]=[N-])cc1` [(R)-5, (R)—N-(4-Azidobenzyl)-2-acetamido-3-methoxypropanamide, reference compound], for which the Tox, TD50 with behavioral toxicity (time (h) in brackets, Table 2) was more than 250 mg/kg.

For the molecule `C#CCOC[C@@H](NC(C)=O)C(=O)NCc1ccccc1` [(R)-7, (R)—N-Benzyl-2-acetamido-3-(prop-2-ynyloxy)propanamide], the melting point turned out to be 149 °C.

In turn, `C#CCOC[C@@H](NC(C)=O)C(=O)NCc1ccc(N=[N+]=[N-])cc1` [(R)-8, (R)—N-(4-Azidobenzyl)-2-acetamido-3-(prop-2-ynyloxy)propanamide] returned a melting point of 135 to 136 °C.

In series [1] (mice, ip, time (h) in brackets, Table 2, footnotes not given), `COC[C@@H](NC(C)=O)C(=O)NCc1ccc(C2(C(F)(F)F)N=N2)cc1` [(R)-9] displayed an ED50 of 15.1 mg/kg.

Consider `COC[C@@H](NC(C)=O)C(=O)NCc1ccc(OCc2cccc(F)c2)cc1` [(R)-10, (R)-2-Acetamido-N-(4-(3-fluorobenzyloxy)benzyl)-3-methoxypropanamide], for which the “Tox, TD50” value is >500 [0.5] milligrams per kilogram with behavioral toxicity (behavioral toxicity, Table 3); >500 [0.5] milligrams per kilogram in the series on behavioral toxicity (setting [7]); >500 [0.5] milligrams per kilogram with behavioral toxicity (setting [8]); more than 280 mg/kg in the series with behavioral toxicity (time (h) in brackets, Table 2); 26 [0.5] milligrams per kilogram in series [3] (rotorod test, Table 3); 26 [0.5] milligrams per kilogram in series [3] (rotorod test, Table b607). For the same molecule, the “Tox, TD50” value in series [3] (rotorod test, Table b608) is 26 [0.5] milligrams per kilogram. Besides, the “MES, ED50” value is 13 [0.25] milligrams per kilogram in series [1] (setting [9]); 13 [0.25] milligrams per kilogram in series [1] (setting [10]); 13 [0.25] milligrams per kilogram in series [1] (setting [5]); 4.9 [1] in series [2] (rat, time (h) in brackets, Table 2). In addition, the “6 Hz, ED50” value in the series on 6 Hz seizures (Table 3), with 6 Hz seizures (Table b607) and in the series with 6 Hz seizures (Table b608) was ~10 [0.25] milligrams per kilogram each time.

Take `COC[C@@H](NC(C)=O)C(=O)NCc1ccc(CCc2cccc(F)c2)cc1` [(R)-13]: in the series with behavioral toxicity (setting [7]), the “Tox, TD50” value was >30 [1] milligrams per kilogram. The ED50 in series [2] (read-out: MES, ED50, rat, po) is less than 30 mg/kg.

As to `COC[C@@H](NC(C)=O)C(=O)NCc1ccc(/C=C/c2cccc(F)c2)cc1` [(R)-14, (2-R,E)-N-4-(3-Fluorostyryl)benzyl 2-Acetamido-3-methoxypropionamide], the “Tox, TD50” value in the series on behavioral toxicity (setting [7]) was >30 [0.25, 4.0] milligrams per kilogram. Also, the ED50 in series [2] (read-out: MES, ED50, rat, po) was approximately 30 mg/kg. Also, the “6 Hz, ED50” value in the series on 6 Hz seizures (Table b607) was <30 [0.25] milligrams per kilogram.

Turning to `COC[C@@H](NC(C)=O)C(=O)NCc1ccc(COc2cccc(F)c2)cc1` [(R)-16, (R)—N-4-((3-Fluorophenoxy)methyl)benzyl 2-Acetamido-3-methoxypropionamide], the “Tox, TD50” value is >400 [0.5] milligrams per kilogram in the series on behavioral toxicity (setting [7]) and 10 [0.25] milligrams per kilogram in series [3] (rotorod test, Table b607). Moreover, in series [1] (setting [9]), the “MES, ED50” value was 5.9 [0.25] milligrams per kilogram. The ED50 in series [2] (read-out: MES, ED50, rat, po) was 19 mg/kg.

For the molecule `COC[C@@H](NC(C)=O)C(=O)NCc1ccc(COCc2cccc(F)c2)cc1` [(R)-18, (R)—N-4-(((3-Fluoro)benzyloxy)methyl)benzyl 2-Acetamido-3-methoxypropionamide], the melting point is 140 to 142 °C.

Take `COC[C@@H](NC(C)=O)C(=O)NCc1ccc(OCc2ccccc2)cc1` [(R)-20, (R)—N-4′-(Benzyloxy)benzyl 2-N-Acetamido-3-methoxypropionamide]: the “Tox, TD50” value with behavioral toxicity (setting [8]) is >250 [1.0] milligrams per kilogram; in series [3] (rotorod test, Table b608), 22 [0.25] (19- milligrams per kilogram. Besides, the “MES, ED50” value in series [1] (setting [10]) was 5.8 [0.25] (4.4-7.2) milligrams per kilogram.

`COC[C@@H](NC(C)=O)C(=O)NCc1ccc(OCc2ccccc2F)cc1` [(R)-21, (R)—N-4-(2-Fluorobenzyloxy)benzyl 2-Acetamido-3-methoxypropionamide]: the “Tox, TD50” value in the series with behavioral toxicity (setting [8]) was more than 500 milligrams per kilogram; in series [3] (rotorod test, Table b608) it was 37 [0.5] (29-48) milligrams per kilogram. Also, the “MES, ED50” value in series [1] (setting [10]) is 6.7 [0.25] (4.8-9.1) milligrams per kilogram.

In the case of `COC[C@@H](NC(C)=O)C(=O)NCc1ccc(OCc2ccc(F)cc2)cc1` [(R)-22, (R)—N-4-(4-Fluorobenzyloxy)benzyl 2-Acetamido-3-methoxypropionamide], in the series on behavioral toxicity (setting [8]), the “Tox, TD50” value is recorded as more than 500 milligrams per kilogram.

In the series on behavioral toxicity (time (h) in brackets, Table 2), `COC[C@@H](NC(C)=O)C(=O)NCc1ccccc1` [(R)—B, (2R)-2-(acetylamino)-N-benzyl-3-methoxypropanamide, reference compound] displayed a Tox, TD50 of more than 500 mg/kg.

As for `COC[C@H](NC(C)=O)C(=O)NCc1ccc(OCc2cccc(F)c2)cc1` [(S)-3, (S)-2-Acetamido-N-(4-(3-fluorobenzyloxy)benzyl)-3-methoxypropanamide], the “Tox, TD50” value in series [3] (time (h) in brackets, Table 2) is >300 [0.5].

For `COC[C@H](NC(C)=O)C(=O)NCc1ccc(N=[N+]=[N-])cc1` [(S)-5, (S)—N-(4-Azidobenzyl)-2-acetamido-3-methoxypropanamide, reference compound], the Tox, TD50 in the series on behavioral toxicity (time (h) in brackets, Table 2) was more than 30 mg/kg.

As to `CC(=O)N[C@@H](C)C(=O)NCc1ccc(OCc2cccc(F)c2)cc1` [(S)-6, (S)—N-4-(3-Fluorobenzyloxy)benzyl 2-Acetamidopropionamide, reference compound], the “Tox, TD50” value was >30 [0.25 to milligrams per kilogram in the series with behavioral toxicity (behavioral toxicity, Table 3) and >300 [0.5] milligrams per kilogram in series [3] (rotorod test, Table 3). In addition, in series [2] (setting [6]), the ED50 was more than 30 mg/kg.

`C#CCOC[C@H](NC(C)=O)C(=O)NCc1ccccc1` [(S)-7, (S)—N-Benzyl-2-acetamido-3-(prop-2-ynyloxy)propanamide] yielded a melting point of 148.5 to 149 °C. Also, in the series on behavioral toxicity (time (h) in brackets, Table 2), the “Tox, TD50” value is more than 30 mg/kg. Moreover, in series [3] (setting [11]), the “Tox, TD50” value is given as more than 300 mg/kg.

For `C#CCOC[C@H](NC(C)=O)C(=O)NCc1ccc(N=[N+]=[N-])cc1` [(S)-8, (S)—N-(4-Azidobenzyl)-2-acetamido-3-(prop-2-ynyloxy)propanamide], the melting point was in the range of 135 to 136.5 °C. Moreover, in the series with behavioral toxicity (time (h) in brackets, Table 2), the “Tox, TD50” value is on record as more than 30 mg/kg. For the same molecule, the “Tox, TD50” value in series [3] (setting [11]) is more than 300 mg/kg.

On to `C#CCOC[C@H](NC(C)=O)C(=O)NCc1ccc(N=C=S)cc1` [(S)-9, (S)—N-(4-Isothiocyanatobenzyl)-2-acetamido-3-(prop-2-ynyloxy)propanamide], for which the melting point lay within 157 to 158 °C. In addition, the “Tox, TD50” value in series [3] (setting [11]) is reported as more than 300 mg/kg.

As for `COC[C@H](NC(C)=O)C(=O)NCc1ccc(OCc2cccc(F)c2)cc1` [(S)-10, (S)-2-Acetamido-N-(4-(3-fluorobenzyloxy)benzyl)-3-methoxypropanamide], the “MES, ED50” value in series [1] (setting [5]) is more than 300 milligrams per kilogram. For the same molecule, the “Tox, TD50” value in series [3] (rotorod test, Table 3) is reported as more than 300 milligrams per kilogram.

As to `COC[C@H](NC(C)=O)C(=O)NCc1ccccc1` [(S)—B, reference compound], the “Tox, TD50” value in series [3] (time (h) in brackets, Table 2) is >300 [0.5].

Molecule `CC(=O)NC(C(=O)NCc1ccc(C)cc1)c1ccccc1` (centres unmarked) [D, reference compound] gave an ED50 in series [1] (mice (ip), text b213) of approximately 300 mg/kg.

`COC[C@@H](NC(C)=O)C(=O)NCc1ccc([N+](=O)[O-])cc1` [F, reference compound] yielded a median effective dose (ED50) in series [1] (mice (ip), text b213) of 100 to 300 mg/kg.

Regarding `CC(=O)NCC(=O)NCc1ccc(OCc2cccc(F)c2)cc1` [compound 5, N-4-(3-Fluorobenzyloxy)benzyl 2-Acetamidoacetamide], the “Tox, TD50” value is >500 [1.0] milligrams per kilogram in the series on behavioral toxicity (behavioral toxicity, Table 3); >300 [0.5 and 4.0] milligrams per kilogram in series [3] (rotorod test, Table 3). In addition, in series [2] (setting [6]), the ED50 came to 31 mg/kg.

Turning to `C#CCOCC(NC(C)=O)C(=O)NCc1ccccc1` (centres unmarked) [compound 7], in the series with 6 Hz seizures, the “seizure activity in the 6 Hz seizure model assay” value was “excellent seizure activity”.

As to `C#CCOCC(NC(C)=O)C(=O)NCc1ccc(N=[N+]=[N-])cc1` (centres unmarked) [compound 8], the “seizure activity in the 6 Hz seizure model assay” value with 6 Hz seizures is “excellent seizure activity”.

The record behind these values is US8933065B2, “N-benzylamide substituted derivatives of 2-(acylamido)acetic acid and 2-(acylamido)propionic acids: potent neurological agents” (The University of North Carolina at Chapel Hill, priority 2008, dated 2015).
